Data published in ChEMBL document CHEMBL1144857, “4-Biphenyl and 2-naphthyl substituted 6,7-dimethoxytetrahydroisoquinoline derivatives as potent P-gp modulators” (Bioorg Med Chem, 2008).
The source made the active and inactive calls. No cut-off for these calls is given here.

Key:
[1] = Inhibition of human P-gp mediated [3H]vinblastine transport activity in human Caco-2 cells; type: cell-based; details: Caco-2, 2 h
[2] = molecular target: ATP-dependent translocase ABCB1 (Homo sapiens, UniProt P08183); assay: Activation of human P-gp ATPase in human Caco-2 cells at 100 uM; type: cell-based; details: caco-2, 100 µM
Caco-2 [3] = assay: (§1) Apparent permeability from basolateral to apical side of human Caco-2 cell membrane; type: ADME, cell-based
Caco-2 [4] = assay: (§2) Apparent permeability from apical to basolateral side of human Caco-2 cell membrane; type: ADME, cell-based
Caco-2 [5] = assay: Ratio of permeability from […] side of human Caco-2 cell membrane; type: ADME, cell-based
[6] = as §1; type: ADME, cell-based
[7] = as §2; type: ADME, cell-based
MCF7 = assay: Antiproliferative activity against adriamycin resistant human MCF7 cells after 24 hrs by MTT assay; type: functional, cell-based
BCRP (ABCG2) = molecular target: T1, BCRP (ABCG2) (Homo sapiens, UniProt Q9UNQ0); assay: Inhibition of human BCRP mediated [3H]mitoxantrone transport activity in human Caco-2 cells at 100 uM; type: cell-based; details: Caco-2, probe [3H]mitoxantrone
T1 sequence (Q9UNQ0 whole entry): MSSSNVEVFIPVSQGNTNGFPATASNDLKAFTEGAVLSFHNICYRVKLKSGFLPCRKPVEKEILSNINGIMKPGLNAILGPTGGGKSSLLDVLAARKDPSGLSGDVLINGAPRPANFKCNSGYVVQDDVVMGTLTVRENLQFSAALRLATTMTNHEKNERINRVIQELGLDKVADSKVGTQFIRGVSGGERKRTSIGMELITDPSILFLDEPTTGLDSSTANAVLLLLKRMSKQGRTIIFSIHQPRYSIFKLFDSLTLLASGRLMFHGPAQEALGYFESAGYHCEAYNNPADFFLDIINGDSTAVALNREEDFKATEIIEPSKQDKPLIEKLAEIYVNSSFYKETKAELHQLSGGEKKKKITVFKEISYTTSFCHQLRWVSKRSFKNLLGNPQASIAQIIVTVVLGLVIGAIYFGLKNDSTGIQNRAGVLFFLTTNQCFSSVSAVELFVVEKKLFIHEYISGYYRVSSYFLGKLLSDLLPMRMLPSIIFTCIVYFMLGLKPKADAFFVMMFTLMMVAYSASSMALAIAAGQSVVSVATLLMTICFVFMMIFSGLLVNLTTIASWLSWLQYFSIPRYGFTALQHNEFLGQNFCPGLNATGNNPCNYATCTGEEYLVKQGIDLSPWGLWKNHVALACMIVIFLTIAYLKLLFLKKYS

[8] = molecular target: T2, Broad substrate specificity ATP-binding cassette transporter ABCG2 (Homo sapiens, UniProt Q9UNQ0); assay: Inhibition of human BCRP mediated [3H]mitoxantrone transport activity in human Caco-2 cells; type: cell-based
T2 sequence (Q9UNQ0 whole entry): T1 sequence (Q9UNQ0 whole entry)

[9] = Activity at P-pg

ATP-dependent translocase ABCB1, sequence (P08183 whole entry): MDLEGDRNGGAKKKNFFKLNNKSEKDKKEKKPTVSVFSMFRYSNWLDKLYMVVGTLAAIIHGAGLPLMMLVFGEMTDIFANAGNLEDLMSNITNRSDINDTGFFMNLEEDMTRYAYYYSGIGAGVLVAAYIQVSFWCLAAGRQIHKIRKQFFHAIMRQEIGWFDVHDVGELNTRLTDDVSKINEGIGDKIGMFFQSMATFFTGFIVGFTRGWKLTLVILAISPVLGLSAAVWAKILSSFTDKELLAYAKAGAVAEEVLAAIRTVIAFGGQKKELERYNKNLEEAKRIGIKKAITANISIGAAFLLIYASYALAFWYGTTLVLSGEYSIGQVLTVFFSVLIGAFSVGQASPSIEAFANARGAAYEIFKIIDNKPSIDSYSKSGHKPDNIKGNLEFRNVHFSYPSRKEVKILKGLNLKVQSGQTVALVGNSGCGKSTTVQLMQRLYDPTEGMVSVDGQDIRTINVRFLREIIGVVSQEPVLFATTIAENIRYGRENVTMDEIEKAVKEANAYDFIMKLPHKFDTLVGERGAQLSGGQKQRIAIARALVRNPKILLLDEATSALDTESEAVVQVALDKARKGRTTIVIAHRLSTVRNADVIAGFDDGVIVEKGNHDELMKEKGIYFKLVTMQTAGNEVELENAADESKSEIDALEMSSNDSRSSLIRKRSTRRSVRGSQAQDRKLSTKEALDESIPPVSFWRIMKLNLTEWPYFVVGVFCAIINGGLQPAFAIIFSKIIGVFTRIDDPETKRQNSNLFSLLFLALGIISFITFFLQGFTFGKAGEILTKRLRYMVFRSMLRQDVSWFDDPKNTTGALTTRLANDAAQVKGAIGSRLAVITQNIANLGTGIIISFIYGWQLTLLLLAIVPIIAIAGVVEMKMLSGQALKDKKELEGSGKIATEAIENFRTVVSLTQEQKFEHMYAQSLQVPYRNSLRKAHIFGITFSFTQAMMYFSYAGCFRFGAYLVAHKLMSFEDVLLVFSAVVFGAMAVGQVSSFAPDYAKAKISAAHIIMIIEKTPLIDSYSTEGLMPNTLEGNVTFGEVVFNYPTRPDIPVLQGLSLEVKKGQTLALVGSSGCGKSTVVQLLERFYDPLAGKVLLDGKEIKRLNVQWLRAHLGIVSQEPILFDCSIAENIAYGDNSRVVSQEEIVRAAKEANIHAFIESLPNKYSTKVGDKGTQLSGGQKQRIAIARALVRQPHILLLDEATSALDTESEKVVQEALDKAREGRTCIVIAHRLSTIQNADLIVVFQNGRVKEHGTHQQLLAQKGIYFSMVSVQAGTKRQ

EC50 [1]	Activity [2]	Papp (Caco-2 [3])	Papp (Caco-2 [4])	Ratio (Caco-2 [5])	Papp B→A [6]	Papp A→B [7]	EC50 [9]	SMILES	Activity (MCF7)	inhibition at 100 µM (BCRP (ABCG2))	Activity [8]
1640 nM	Not Active	–	–	–	–	–	–	COc1cc2c(cc1OC)CN(CC/C=C1\CCCc3c(OC)cccc31)CC2	–	–	Active
15000 nM	Not Active	–	–	–	197 ×10⁻⁶ cm/s	21.6 ×10⁻⁶ cm/s	–	COc1cc2c(cc1OC)CN(Cc1ccccc1-c1ccccc1)CC2	–	–	–
100 nM	Not Active	–	–	–	141 ×10⁻⁶ cm/s	77.7 ×10⁻⁶ cm/s	–	COc1cc2c(cc1OC)CN(Cc1ccc(-c3ccccc3)cc1)CC2	inactive	–	–
800 nM	Not Active	–	–	–	180 ×10⁻⁶ cm/s	21.6 ×10⁻⁶ cm/s	–	COc1cc2c(cc1OC)CN(Cc1ccc3ccccc3c1)CC2	–	–	–
–	–	–	–	–	–	–	550 nM	COc1cccc2c1CCCC2CCCN1CCN(C2CCCCC2)CC1 (stereo not drawn)	–	–	–
6500 nM	Not Active	–	–	–	366 ×10⁻⁶ cm/s	30.1 ×10⁻⁶ cm/s	–	COc1cc2c(cc1OC)CN(Cc1cccc(-c3ccccc3)c1)CC2	–	–	–
20000 nM	10%	–	–	–	415 ×10⁻⁶ cm/s	32.4 ×10⁻⁶ cm/s	–	COc1cc2c(cc1OC)CN(C(=O)c1ccc3ccccc3c1)CC2	–	–	–

Further lines, the compound ahead of its results:

SMILES	EC50 [1]	Activity [2]	Papp (Caco-2 [3])	Papp (Caco-2 [4])	Ratio (Caco-2 [5])	Papp B→A [6]	Papp A→B [7]	EC50 [9]	Activity (MCF7)	inhibition at 100 µM (BCRP (ABCG2))	Activity [8]
COc1ccc2cc(CN3CCc4cc(OC)c(OC)cc4C3)ccc2c1	300 nM	Not Active	677 nm/s	187 nm/s	3.6	–	–	–	–	–	–
COc1cc2c(cc1OC)CN(CCc1ccc(NC(=O)c3cccc4c(=O)c5cccc(OC)c5[nH]c34)cc1)CC2	2000 nM	Not Active	–	–	–	–	–	–	–	–	–
COc1cc2c(cc1OC)CN(C(=O)c1ccc3cc(O)ccc3c1)CC2	650 nM	40%	–	–	–	190 ×10⁻⁶ cm/s	25.1 ×10⁻⁶ cm/s	–	–	–	–
COc1cc2c(cc1OC)CN(Cc1ccc(-c3ccc(O)cc3)cc1)CC2	50 nM	Not Active	–	–	–	60.9 ×10⁻⁶ cm/s	47.6 ×10⁻⁶ cm/s	–	inactive	19%	–
COc1ccc2cc(C(=O)N3CCc4cc(OC)c(OC)cc4C3)ccc2c1	18000 nM	Not Active	–	–	–	123 ×10⁻⁶ cm/s	19.3 ×10⁻⁶ cm/s	–	–	–	–
COc1cc2c(cc1OC)CN(Cc1ccc3cc(O)ccc3c1)CC2	450 nM	10%	–	–	–	235 ×10⁻⁶ cm/s	35.3 ×10⁻⁶ cm/s	–	–	–	–
COc1cc2c(cc1OC)CN(C(=O)c1ccc(-c3ccc(O)cc3)cc1)CC2	3500 nM	Not Active	–	–	–	277 ×10⁻⁶ cm/s	28 ×10⁻⁶ cm/s	–	–	–	–
COc1cc2c(cc1OC)CN(C(=O)c1ccc(-c3ccccc3)cc1)CC2	28000 nM	35%	–	–	–	244 ×10⁻⁶ cm/s	60.1 ×10⁻⁶ cm/s	–	–	–	–
